Laboratory results published in patent EP0198765A2, “Preparation of liposomes” (GEORGETOWN UNIVERSITY, priority 1985, dated 1986).

Assays:
[1] = Percentage of entrapment of drugs in liposomes, determined by fluorescence after dialysis; assay type: physicochemical; details: liposomes of cardiolipin, phosphatidyl choline, cholesterol, stearylamine-DTPA
Method: For the preparation of liposomes, 6 mg of doxorubicin or daunorubicin was added to 9 mg of cardiolipin solution and evaporated to dryness under N2. To this dried mixture were then added 22.5 mg of phosphatidyl choline, 7.5 mg cholesterol and 3 mg of stearylamine-DTPA. Again, the mixture was evaporated to dryness under N2.
The dried lipids and doxorubicin or daunorubicin were resuspended in 6 ml of 0.01 M phosphate buffer with 0.85% NaCl, pH 7.4 (PBS). After one-half-hour swelling time, the liposomes were stirred for 15 minutes, followed by sonication (Heat System, Model W-220F) in a fixed temperature bath at 37°C for 90 minutes. The non-entrapped doxorubicin or daunorubicin was separated from liposome-encapsulated drug by extensive dialysis against 0.001 M phosphate buffer with 0.85% NaCl, pH 7.4 at 4°C over a period of 20 hours with at least two changes of buffer solutions (250 ml/ml liposomes). […] The difference in encapsulation of these two drugs relates to their lipophilicity; daunorubicin is more lipophilic than doxorubicin. The liposomes were freshly prepared each day and were diluted with 0.01 M phosphate buffer (PBS) so as to administer doses of doxorubicin or daunorubicin equivalent to doses of free drugs for pharmacological, toxicological and therapeutic studies.

P388 leukemia = experiment: Antitumor studies against P388 leukemia in mice (median survival time, T/c); assay type: in vivo, CDF1 mice; details: 24 hours after i.p. implant of 1x10^6 P388 cells, Treated/Control x 100
Method: To investigate the therapeutic effectiveness of doxorubicin and daunorubicin entrapped in liposomes, antitumor studies were performed against P388 leukemia in CDF1 mice. Groups of ten mice were implanted intraperitoneally with lxl0^6 cells of P388 tumor, and drug treatment was initiated on day one intraperitoneally or intravenously after tumor cell inoculation. Antitumor efficacy was expressed in leukemic animals by the increase in median survival time, in the dose-range used, compared to controls. Dead animals were autopsied and toxicity was established on the basis of macroscopic necropsy findings.

[2] = Lethal toxicity in normal mice; assay type: in vivo; details: 20 mg/kg intraperitoneally, normal CDF1 mice, by day 10
Method: For comparison of lethal toxicity of free doxorubicin and doxorubicin entrapped in liposomes, normal CDF1 mice were administered a dose of 20 mg/kg intraperitonally. The mice were observed until day 80 post-drug administration. The control mice received blank liposomes representing the same concentration of the lipid used to entrap a dose of 20 mg/kg of doxorubicin. Mice in each group were weighed twice weekly and were observed daily.

[3] = Plasma levels in mice after i.v. administration of free or liposome-entrapped drug; details: 6 mg/kg i.v.
Method: (§1) Male CDF1 mice weighing 20-25 g were used to evaluate the influence of liposome encapsulation on plasma levels and physiological disposition of daunorubicin and doxorubicin. Free or encapsulated daunorubicin or doxorubicin was administered intravenously via a lateral tail vein at a dose of 6 mg/kg at 2% body weight (0.02 ml/gm). At 5, 15, 30, 60, 120, 240, and 480 minutes and at 24 hours, mice in each group were bled from the orbital sinus. Blood was collected in heparinized tubes and centrifuged at 1500 rpm for 10 minutes. The plasma layer was separated and frozen. Mice were then killed by cervical dislocation, and the liver, kidney, heart, spleen, small intestine and lungs were excised, rinsed in normal saline, and stored at -20°C until assayed.
(§2) Plasma and tissues were analyzed for drug equivalents by the method of Formelli et al. (Cancer Chemotherapy and Pharmacology, 5, 129-144 (1981)) as modified in the inventor's laboratories. Plasma (0.25 ml) was diluted to 1 ml with distilled water, followed by addition of 0.2 ml of AgN03 (33% wt/vol). Tissues were homogenized in 1 ml of water in a polytron homogenizer. […] The butanol extract was read in a spectrofluorometer at 470 nm excitation and 585 nm emission. Control plasma and tissues obtained from mice treated with blank liposomes were treated the same way and read in the fluorometer to correct for any endogenous fluorescence. […]

[4] = Tissue disposition (heart, liver, spleen, lungs, kidney, intestine) in mice after i.v. administration; details: doxorubicin 6 mg/kg i.v., CDF1 mice; at 15 minutes
Method: as §1, §2

COc1cccc2c1C(=O)c1c(O)c3c(c(O)c1C2=O)C[C@@](O)(C(=O)CO)C[C@@H]3O[C@H]1C[C@H](N)[C@H](O)[C@H](C)O1 [Free Doxorubicin, doxorubicin]
efficiency of entrapment in liposomes [1]: 65-75% | T/c (%) (P388 leukemia; 15 mg/kg i.p.): 130% | T/c (%) (P388 leukemia; 20 mg/kg i.p.): 100% | mortality [2]: 100% | peak plasma concentration (doxorubicin) [3]: 2.4 µg/mL | peak drug concentration in the kidney [4]: 41.0 µg/gm

COc1cccc2c1C(=O)c1c(O)c3c(c(O)c1C2=O)C[C@@](O)(C(C)=O)C[C@@H]3O[C@H]1C[C@H](N)[C@H](O)[C@H](C)O1 [Free Daunorubicin, daunorubicin]
efficiency of entrapment in liposomes [1]: 75-85% | T/c (%) (P388 leukemia; 2 mg/kg i.p.): 145.5% | T/c (%) (P388 leukemia; 4 mg/kg i.p.): 136.4% | T/c (%) (P388 leukemia; 6 mg/kg i.p.): 109.1% | T/c (%) (P388 leukemia; 6 mg/kg i.p., listed as daunorubicin): 109% | T/c (%) (P388 leukemia; 15 mg/kg l.v): 145.5% | T/c (%) (P388 leukemia; 20 mg/kg i.v.): 154.5%
